Source: patent US7585939B2, “Chromatin peptides blocking human HIF-1α gene and modulating the downstream related genes” (Geneblue Corporation, priority 2005, dated 2009)
Where no end group is shown, it is not given here.

Columns and labels:
[1] = system: small cell lung cancer; test: Treatment of patient with small cell lung cancer with micrometastasis to liver; type: in vivo, human patient; conditions: 5 mg i.v. every 10 days
Protocol: Patient with small cell lung cancer, at middle and advanced stage, had micrometastasis to liver. […] Administer intravenous injection every 10 days, with 5 mg each time. 15 days later, dyspnoea and referred pain all vanished.

[2] = system: human breast cancer cell line 0404 MDA-MB-435; test: MDA-MB-435 human breast cancer animal model in BALB/c-nu nude mice; type: in vivo, BALB/c-nu female nude mice
Protocol: The experiment animals with tumor size of 100-200 MM^3 were randomized into four groups, at the 14th day after inoculation of cancer cells. There were 16 mice in each group, treated with different doses of low (0.5 mg/kg), medium (2 mg/kg), and high (5 mg/kg). The control group was treated with normal saline. Administer injection to the tumor surroundings every day after inoculation. The growth tumor volume was measured every 3 days. All experiment mice were killed at the 21st day; tumor growth rate was measured by volume and weight.

[3] = system: Breast cancer; test: Treatment of breast cancer in dogs; type: in vivo; conditions: 0.5 mg injected directly to the tumor every 15 days; 20th day
Protocol: Breast cancer were found in dogs, with tumor size of 45 mm×50 mm. NH2-Lys Arg Ala Ser Arg Asn Lys Ser Glu Lys Lys Arg Arg-COOH (SEQ ID NO: 20) was directly injected to the tumor, with 0.5 mg each time, and administration was given every 15 days.

[4] = system: lung cancer existing carcinomatous metastasis to marrow; test: Treatment of patient with lung cancer with metastasis to marrow; type: in vivo, human patient; conditions: 2 mg i.v. every 5 days
Protocol: Patient with lung cancer existing carcinomatous metastasis to marrow conducted radiotherapy. […] Intravenous injections were given every 5 days, with a dose of 2 mg each time, and one month as a course of treatment. In addition, antibiotics were accompanied to control complicated infection.

[5] = system: highly metastatic tumor HCT of human colon carcinoma cell line
Protocol: The highly metastatic tumor HCT of human colon carcinoma cell line was inoculated into the forelimb armpit of BALB/c-nu, a kind of female nude mouse, with amount of 5 million tumor cells/per mouse. Five days later, the area of tumor cells implanted was directly treated by injection with the above-mentioned 14 mer peptide solution, by a dose of 5 mg/kg daily. The drug treatment group and control (saline) group were set up, with 25 mice in each side. The experiment mice were killed after 21 days, measuring the tumor weight. After weighing the tumor taken from each mouse, keep it in 4% formaldehyde. Paraffin section shed paraffin for 10 minutes through xylene, then deal with alcohol, stain in hematoxylin, and then stains with 0.5% eosine ethanol. After that, mount with neutral gum. Analyze under microscope and take films.

[6] = with radiotherapy and antibiotics

Substance: NH2-Arg Lys Glu Lys Ser Arg Asp Ala Ala Arg Cys Arg Arg-COOH (H-RKEKSRDAARCRR-OH) [13mer peptide]
- microscopic repeated test of sputum ([1]; 90th day): no malignant cells falling off
- biopsy ([1]; 100th day): no malignant cells
- dyspnoea and referred pain ([1]; 15 days later): all vanished

Substance: NH2-Arg Lys Glu Lys Ser Arg Asp Ala Ala Arg-COOH (H-RKEKSRDAAR-OH) [10 mer peptide]
- breast cancer growth in the animal model ([2]; conclusion from Table 4): inhibit breast cancer growth
- The volume of tumor sizes on average ([2]; high dose 5 mg/kg daily, 3rd day): 1.408 CM^3
- The volume of tumor sizes on average ([2]; high dose 5 mg/kg daily, 7th day): 1.461 CM^3
- The volume of tumor sizes on average ([2]; high dose 5 mg/kg daily, 10th day): 1.253 CM^3
- The volume of tumor sizes on average ([2]; high dose 5 mg/kg daily, 14th day): 2.211 CM^3
- The volume of tumor sizes on average ([2]; high dose 5 mg/kg daily, 17th day): 2.3635 CM^3
- The volume of tumor sizes on average ([2]; high dose 5 mg/kg daily, 21st day): 1.793 CM^3
- The volume of tumor sizes on average ([2]; low dose 0.5 mg/kg daily, 3rd day): 1.475 CM^3
- The volume of tumor sizes on average ([2]; low dose 0.5 mg/kg daily, 7th day): 3.313 CM^3
- The volume of tumor sizes on average ([2]; low dose 0.5 mg/kg daily, 10th day): 4.97 CM^3
- The volume of tumor sizes on average ([2]; low dose 0.5 mg/kg daily, 14th day): 7.668 CM^3
- The volume of tumor sizes on average ([2]; low dose 0.5 mg/kg daily, 17th day): 8.482 CM^3
- The volume of tumor sizes on average ([2]; low dose 0.5 mg/kg daily, 21st day): 8.953 CM^3
- The volume of tumor sizes on average ([2]; medium dose 2 mg/kg daily, 3rd day): 1.295 CM^3
- The volume of tumor sizes on average ([2]; medium dose 2 mg/kg daily, 7th day): 2.133 CM^3
- The volume of tumor sizes on average ([2]; medium dose 2 mg/kg daily, 10th day): 2.721 CM^3
- The volume of tumor sizes on average ([2]; medium dose 2 mg/kg daily, 14th day): 4.879 CM^3
- The volume of tumor sizes on average ([2]; medium dose 2 mg/kg daily, 17th day): 6.274 CM^3
- The volume of tumor sizes on average ([2]; medium dose 2 mg/kg daily, 21st day): 6.119 CM^3

Substance: NH2-Lys Arg Ala Ser Arg Asn Lys Ser Glu Lys Lys Arg Arg-COOH (H-KRASRNKSEKKRR-OH) [SEQ ID NO: 20]
- tumor (size 45 mm×50 mm) [3]: Tumor disappeared

Substance: RRKEKSRDAARSRR [14 mer peptide]
- cancer status ([4]; one month as a course): cancer free three months later
- Skeleton ache symptom [4, 6]: decreased after five days
- osteodynia [4, 6]: disappeared 20 days later
- experiment mice in the treatment group with tumors totally disappeared ([5]; 5 mg/kg daily injected at tumor area from day 5, killed after 21 days, 25 mice per group): four
- pathological section of tumor ([5]; 5 mg/kg daily, treatment group vs saline control, FIG. 1(A)/1(B)): a lot of apoptotic bodies and cell debris were found in the central part of the tumor
